# Tested on: RBL-2H3
# Test: Inhibition of DNP7-BSA antigen-induced TNFalpha release in rat RBL-2H3 cells
# Format: functional, cell-based
row,Compound,IC50 [nM]
1,Oc1ccc(-c2c(O)c(O)c3c(oc4cc(O)c(O)cc43)c2O)cc1 [CYCLOLEUCOMELONE],3500
2,O=C(Cc1ccccc1)Oc1c(-c2ccc(O)cc2)c(OC(=O)Cc2ccccc2)c2oc3cc(O)c(O)cc3c2c1OC(=O)Cc1ccccc1 [GANBAJUNIN B],5000
3,C=CC[C@@H]1/C=C(\C)C[C@H](C)C[C@H](OC)[C@H]2O[C@@](O)(C(=O)C(=O)N3CCCC[C@H]3C(=O)O[C@H](/C(C)=C/[C@@H]3CC[C@@H](O)[C@H](OC)C3)[C@H](C)[C@@H](O)CC1=O)[C@H](C)C[C@@H]2OC [TACROLIMUS ANHYDROUS],0.25
4,O=C(Cc1ccccc1)Oc1c(-c2ccc(O)cc2)c(O)c2oc3cc(O)c(O)cc3c2c1OC(=O)Cc1ccccc1 [VIALININ B],0.02

# From ChEMBL document CHEMBL1137286, “Vialinin B, a novel potent inhibitor of TNF-alpha production, isolated from an edible mushroom, Thelephora vialis” (Bioorg Med Chem Lett, 2006)
